Patent publication US7427597B2, “Method of treating brain tissue damages” (Academia Sinica, priority 2005, dated 2008)
Where no end group is shown, it is not given here.

Assay: Physiological parameters in ischemic rats
Type: in vivo
Settings: SN treated vs saline treated rats, n=7
Source text: Seven SN treated rats and seven-saline treated rats also had their physiological parameters measured.

blood gases: No difference | blood glucose: No difference | serum electrolyte levels: No difference
Sequence: TNEIVEEQYTPQSLATLESVFQELGKLTGPNNQ [SN, secretoneurin]
systemic blood pressure: No difference
